Consider 21 compounds from US8796324B2, “Substituted 2-acetamido-5-aryl-1,2,4-triazolones and use thereof” (Bayer Intellectual Property GmbH, priority 2009, dated 2014).

In assay [1] the target is T1, human V1a receptor (Homo sapiens, UniProt P37288).
T1 construct: expressed in transfected cells; host or cells: CHO K1 (constitutively expressing modified aequorin)
The assay can be described thus: Cellular in vitro assay for determining the vasopressin receptor activity (aequorin luminescence). The conditions noted are these: CHO cell line transfected with the human V1a receptor; agonist [Arg8]-vasopressin; read-out: IC50 hV1a. It is filed as cell-based. From the text: (§1) B-1. Cellular In Vitro Assay for Determining the Vasopressin Receptor Activity
(§2) The identification of agonists and antagonists of the V1a and V2 vasopressin receptors from humans and rats and also the quantification of the activity of the substances described here took place using recombinant cell lines. These cells derive originally from a hamster ovary epithelial cell (Chinese Hamster Ovary, CHO K1, ATCC: American Type Culture Collection, Manassas, Va. 20108, USA). The test cell lines constitutively express a modified form of the calcium-sensitive photoprotein aequorin, which, after reconstitution with the cofactor coelenterazine, emits light when there are increases in the free calcium concentration (Rizzuto R., Simpson A. W., Brini M., Pozzan T.; Nature 358 (1992) 325-327). In addition, the cells are stably transfected with the human or rat V1a or V2 receptors. In the case of the Gs-coupling V2 receptors, the cells are stably transfected with a further gene, which codes for the promiscuous Gα16 protein (Amatruda T. T., Steele D. A., Slepak V. Z., Simon M. I., Proc. Nat. Acad. Sci. USA 88 (1991), 5587-5591), either independently or as a fusion gene. The resulting vasopressin receptor test cells react to stimulation of the recombinantly expressed vasopressin receptors by intracellular release of calcium ions, which can be quantified by the resulting aequorin luminescence using a suitable luminometer (Milligan G., Marshall F., Rees S., Trends in Pharmaco. Sci. 17 (1996) 235-237).
(§3) On the day before the assay, the cells are plated out in culture medium (DMEM, 10% FCS, 2 mM glutamine, 10 mM HEPES) in 384-well microtiter plates and kept in a cell incubator (96% humidity, 5% v/v carbon dioxide, 37° C.). On the day of the assay, the culture medium is replaced by a Tyrode solution (140 mM sodium chloride, 5 mM potassium chloride, 1 mM magnesium chloride, 2 mM calcium chloride, 20 mM glucose, 20 mM HEPES), which additionally contains the cofactor coelenterazine (50 μM), and the microtiter plate is then incubated for a further 3-4 hours. The test substances in various concentrations are placed for 10 to 20 minutes in the wells of the microtiter plate before the agonist [Arg8]-vasopressin is added, and the resulting light signal is measured immediately in the luminometer. The IC50 values are calculated using the GraphPad PRISM computer program (Version 3.02).
(§4) The table below lists representative IC50 values for the compounds of the invention on the cell line transfected with the human V1a or V2 receptor: […]

Assay [2] concerns the target T2, human V2 receptor (Homo sapiens, UniProt P30518).
T2 construct: expressed in transfected cells; host or cells: CHO K1 (constitutively expressing modified aequorin; co-transfected with promiscuous G-alpha-16)
Described as above. It is filed as cell-based. Conditions: CHO cell line transfected with the human V2 receptor (and Gα16); agonist [Arg8]-vasopressin; read-out: IC50 hV2.
Description: as §1, §2, §3, §4

The structures appear in SMILES notation.

T2 sequence (P30518 whole entry): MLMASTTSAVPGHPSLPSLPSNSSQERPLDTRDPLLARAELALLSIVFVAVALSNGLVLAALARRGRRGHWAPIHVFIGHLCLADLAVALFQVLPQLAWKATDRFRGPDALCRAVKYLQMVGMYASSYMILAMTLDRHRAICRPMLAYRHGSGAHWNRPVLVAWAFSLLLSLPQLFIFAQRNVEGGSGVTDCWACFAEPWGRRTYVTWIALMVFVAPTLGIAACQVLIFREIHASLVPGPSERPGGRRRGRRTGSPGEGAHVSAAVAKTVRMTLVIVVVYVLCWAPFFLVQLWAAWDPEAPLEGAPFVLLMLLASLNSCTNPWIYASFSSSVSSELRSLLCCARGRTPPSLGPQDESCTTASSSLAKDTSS
T1 sequence (P37288 whole entry): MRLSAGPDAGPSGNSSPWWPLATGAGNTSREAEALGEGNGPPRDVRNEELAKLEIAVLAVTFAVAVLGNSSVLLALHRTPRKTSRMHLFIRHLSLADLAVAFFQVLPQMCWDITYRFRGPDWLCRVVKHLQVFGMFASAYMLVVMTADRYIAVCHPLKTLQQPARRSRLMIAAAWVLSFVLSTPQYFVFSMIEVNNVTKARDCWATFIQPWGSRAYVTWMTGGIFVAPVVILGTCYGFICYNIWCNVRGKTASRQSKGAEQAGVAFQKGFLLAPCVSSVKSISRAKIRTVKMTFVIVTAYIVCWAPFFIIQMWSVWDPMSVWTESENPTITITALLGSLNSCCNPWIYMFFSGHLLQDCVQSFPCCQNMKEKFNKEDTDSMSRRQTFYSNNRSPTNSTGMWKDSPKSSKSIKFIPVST

Consider `NC(=O)OCC(NC(=O)Cn1nc(-c2ccc(Cl)cc2)n(Cc2ccccc2F)c1=O)c1ccccc1C(F)(F)F` (single isomer, unassigned) [Example 191, 2-({[3-(4-Chlorophenyl)-4-(2-fluorobenzyl)-5-oxo-4,5-dihydro-1H-1,2,4-triazol-1-yl]acetyl}amino)-2-[2-(trifluoromethyl)phenyl]ethyl carbamate], for which the results for the IC50 in assay [1] and in assay [2] were 2.3 nM and 24.8 nM, respectively.
Turning to `NC(=O)OCC(NC(=O)Cn1nc(-c2ccc(Cl)cc2)n(C[C@H](O)C(F)(F)F)c1=O)c1cccc(Cl)c1Cl` (single isomer, unassigned) [Example 203], the IC50 in assay [1] stood at 2.7 nM; in assay [2], 4.4 nM.
Consider `O=C(Cn1nc(-c2ccc(Cl)cc2)n(C[C@H](O)C(F)(F)F)c1=O)NC(C[N+](=O)[O-])c1cccc(C(F)(F)F)c1` (single isomer, unassigned; diastereomer i) [Example 2], for which the IC50 in assay [1] was 7.6 nM; in assay [2], 2.6 nM.
Consider `O=C(Cn1nc(-c2ccc(Cl)cc2)n(C[C@H](O)C(F)(F)F)c1=O)NC(CO)c1ccccc1C(F)(F)F` (single isomer, unassigned; diastereomer i) [Example 39], for which the IC50 in assay [1] was determined as 1.4 nM; in assay [2], 7.8 nM.
`NCC(NC(=O)Cn1nc(-c2ccc(Cl)cc2)n(C[C@H](O)C(F)(F)F)c1=O)c1ccccc1C(F)(F)F` (single isomer, unassigned; diastereomer ii) [Example 14]: the IC50 in assay [1] amounted to 1 nM; in assay [2], 8.9 nM.
For the compound `CS(=O)(=O)NCC(NC(=O)Cn1nc(-c2ccc(Cl)cc2)n(C[C@H](O)C(F)(F)F)c1=O)c1cccc(C(F)(F)F)c1` (single isomer, unassigned; diastereomer ii) [Example 24], the IC50 was determined as 4.5 nM in assay [1] and 1.3 nM in assay [2].
Take `CS(=O)(=O)NCC(NC(=O)Cn1nc(-c2ccc(Cl)cc2)n(C[C@H](O)C(F)(F)F)c1=O)c1ccccc1C(F)(F)F` (single isomer, unassigned; diastereomer ii) [Example 26]: the IC50 stood at 0.9 nM in assay [1] and 3.2 nM in assay [2].
On to `CCS(=O)(=O)NCC(NC(=O)Cn1nc(-c2ccc(Cl)cc2)n(C[C@H](O)C(F)(F)F)c1=O)c1cccc(Cl)c1Cl` (single isomer, unassigned; diastereomer ii) [Example 34], for which the IC50 is 3 nM in assay [1] and 1.5 nM in assay [2].
Take `C[C@@](CO)(NC(=O)Cn1nc(-c2ccc(Cl)cc2)n(C[C@H](O)C(F)(F)F)c1=O)c1cccc(C(F)(F)F)c1` [Example 44, 2-{3-(4-Chlorophenyl)-5-oxo-4-[(2S)-3,3,3-trifluoro-2-hydroxypropyl]-4,5-dihydro-1H-1,2,4-triazol-1-yl}-N-{(2R)-1-hydroxy-2-[3-(trifluoromethyl)phenyl]propan-2-yl}acetamide]: the IC50 in assay [1] was 44 nM; in assay [2], 1.7 nM.
In the same order, the values of `C[C@@](COC(N)=O)(NC(=O)Cn1nc(-c2ccc(Cl)cc2)n(C[C@H](O)C(F)(F)F)c1=O)c1cccc(C(F)(F)F)c1` [Example 45, (2R)-2-[({3-(4-Chlorophenyl)-5-oxo-4-[(2S)-3,3,3-trifluoro-2-hydroxypropyl]-4,5-dihydro-1H-1,2,4-triazol-1-yl}acetyl)amino]-2-[3-(trifluoromethyl)phenyl]propyl carbamate] are 5.5 nM and 2.5 nM.
With `NC(=O)OCC(NC(=O)Cn1nc(-c2ccc(Cl)cc2)n(C[C@H](O)C(F)(F)F)c1=O)c1ccccc1Cl` (stereo partly drawn) [Example 53, 2-(2-Chlorophenyl)-2-[({3-(4-chlorophenyl)-5-oxo-4-[(2S)-3,3,3-trifluoro-2-hydroxypropyl]-4,5-dihydro-1H-1,2,4-triazol-1-yl}acetyl)amino]ethyl carbamate], the IC50 in assay [1] worked out at 1.5 nM; in assay [2], 4.9 nM.
As to `O=C(Cn1nc(-c2ccc(Cl)cc2)n(C[C@H](O)C(F)(F)F)c1=O)N[C@@H](CCO)c1ccccc1C(F)(F)F` [Example 69, 2-{3-(4-Chlorophenyl)-5-oxo-4-[(2S)-3,3,3-trifluoro-2-hydroxypropyl]-4,5-dihydro-1H-1,2,4-triazol-1-yl}-N-{(1S)-3-hydroxy-1-[2-(trifluoromethyl)phenyl]propyl}acetamide], the IC50 in assay [1] stood at 1.6 nM; in assay [2] it was 9.7 nM.
Take `NC(=O)OCC[C@H](NC(=O)Cn1nc(-c2ccc(Cl)cc2)n(C[C@H](O)C(F)(F)F)c1=O)c1ccccc1C(F)(F)F` [Example 70, (3S)-3-[({3-(4-Chlorophenyl)-5-oxo-4-[(2S)-3,3,3-trifluoro-2-hydroxypropyl]-4,5-dihydro-1H-1,2,4-triazol-1-yl}acetyl)amino]-3-[2-(trifluoromethyl)phenyl]propyl carbamate]: the results for the IC50 in assay [1] and in assay [2] were 1.6 nM and 9.9 nM, respectively.
For the compound `Cc1cccc([C@H](CO)NC(=O)Cn2nc(-c3ccc(Cl)cc3)n(C[C@H](O)C(F)(F)F)c2=O)c1C` [Example 74, 2-{3-(4-Chlorophenyl)-5-oxo-4-[(2S)-3,3,3-trifluoro-2-hydroxypropyl]-4,5-dihydro-1H-1,2,4-triazol-1-yl}-N-[(1R)-1-(2,3-dimethylphenyl)-2-hydroxyethyl]acetamide], the IC50 in assay [1] was determined as 21.6 nM; in assay [2] it was 2.4 nM.
As for `N#Cc1cccc([C@H](CO)NC(=O)Cn2nc(-c3ccc(Cl)cc3)n(C[C@H](O)C(F)(F)F)c2=O)c1` [Example 75, 2-{3-(4-Chlorophenyl)-5-oxo-4-[(2S)-3,3,3-trifluoro-2-hydroxypropyl]-4,5-dihydro-1H-1,2,4-triazol-1-yl}-N-[(1R)-1-(3-cyanophenyl)-2-hydroxyethyl]acetamide], the IC50 in assay [1] amounted to 513 nM; in assay [2] it was 59.2 nM.
In the same order, the values of `O=C(Cn1nc(-c2ccc(Cl)cc2)n(C[C@H](O)C(F)(F)F)c1=O)NC(CC(F)(F)F)c1ccccc1` (stereo partly drawn) [Example 90, 2-{3-(4-Chlorophenyl)-5-oxo-4-[(2S)-3,3,3-trifluoro-2-hydroxypropyl]-4,5-dihydro-1H-1,2,4-triazol-1-yl}-N-(3,3,3-trifluoro-1-phenylpropyl)acetamide] are 88.6 nM and 231 nM.
With `O=C(Cn1nc(-c2ccc(Cl)cc2)n(C[C@H](O)C(F)(F)F)c1=O)NC(c1ccccc1)C(O)C(F)(F)F` (stereo partly drawn) [Example 94, 2-{3-(4-Chlorophenyl)-5-oxo-4-[(2S)-3,3,3-trifluoro-2-hydroxypropyl]-4,5-dihydro-1H-1,2,4-triazol-1-yl}-N-(3,3,3-trifluoro-2-hydroxy-1-phenylpropyl)acetamide], the IC50 in assay [1] turned out to be 251 nM; in assay [2], 72.3 nM.
Taken in the same sequence, the figures for `O=C(Cn1nc(-c2ccc(Cl)cc2)n(C[C@H](O)C(F)(F)F)c1=O)NC(CO)c1cccc(F)c1F` (stereo partly drawn) [Example 95, 2-{3-(4-Chlorophenyl)-5-oxo-4-[(2S)-3,3,3-trifluoro-2-hydroxypropyl]-4,5-dihydro-1H-1,2,4-triazol-1-yl}-N-[1-(2,3-difluorophenyl)-2-hydroxyethyl]acetamide] were 57.3 nM and 19.2 nM.
As to `O=C(Cn1nc(-c2ccc(Cl)cc2)n(C[C@H](O)C(F)(F)F)c1=O)NC(CO)c1cccc(C(F)F)c1` (stereo partly drawn) [Example 157, 2-{3-(4-Chlorophenyl)-5-oxo-4-[(2S)-3,3,3-trifluoro-2-hydroxypropyl]-4,5-dihydro-1H-1,2,4-triazol-1-yl}-N-{1-[3-(difluoromethyl)phenyl]-2-hydroxyethyl}acetamide], the results for the IC50 in assay [1] and in assay [2] were 12.4 nM and 5.1 nM, respectively.
In the case of `NS(=O)(=O)OCC(NC(=O)Cn1nc(-c2ccc(Cl)cc2)n(C[C@H](O)C(F)(F)F)c1=O)c1cccc(C(F)(F)F)c1` (stereo partly drawn) [Example 159, 2-[({3-(4-Chlorophenyl)-5-oxo-4-[(2S)-3,3,3-trifluoro-2-hydroxypropyl]-4,5-dihydro-1H-1,2,4-triazol-1-yl}acetyl)amino]-2-[3-(trifluoromethyl)phenyl]ethyl sulphamate], the IC50 is 4.3 nM in assay [1] and 1.8 nM in assay [2].
With `CN(C(=O)Cn1nc(-c2ccc(Cl)cc2)n(C[C@H](O)C(F)(F)F)c1=O)C(CO)c1cccc(C(F)(F)F)c1` (stereo partly drawn) [Example 163, 2-{3-(4-Chlorophenyl)-5-oxo-4-[(2S)-3,3,3-trifluoro-2-hydroxypropyl]-4,5-dihydro-1H-1,2,4-triazol-1-yl}-N-{2-hydroxy-1-[3-(trifluoromethyl)phenyl]ethyl}-N-methylacetamide], the IC50 in assay [1] is 594 nM; in assay [2], 7.7 nM.

For orientation: IC50 means the concentration that inhibits the measured activity by half.
